Active and inactive are the calls of the source.
Key:
Type in all cases: functional
Protein skinhead-1 = molecular target: T1, Protein skinhead-1 (Caenorhabditis elegans, UniProt P34707)
T1 sequence (P34707 whole entry): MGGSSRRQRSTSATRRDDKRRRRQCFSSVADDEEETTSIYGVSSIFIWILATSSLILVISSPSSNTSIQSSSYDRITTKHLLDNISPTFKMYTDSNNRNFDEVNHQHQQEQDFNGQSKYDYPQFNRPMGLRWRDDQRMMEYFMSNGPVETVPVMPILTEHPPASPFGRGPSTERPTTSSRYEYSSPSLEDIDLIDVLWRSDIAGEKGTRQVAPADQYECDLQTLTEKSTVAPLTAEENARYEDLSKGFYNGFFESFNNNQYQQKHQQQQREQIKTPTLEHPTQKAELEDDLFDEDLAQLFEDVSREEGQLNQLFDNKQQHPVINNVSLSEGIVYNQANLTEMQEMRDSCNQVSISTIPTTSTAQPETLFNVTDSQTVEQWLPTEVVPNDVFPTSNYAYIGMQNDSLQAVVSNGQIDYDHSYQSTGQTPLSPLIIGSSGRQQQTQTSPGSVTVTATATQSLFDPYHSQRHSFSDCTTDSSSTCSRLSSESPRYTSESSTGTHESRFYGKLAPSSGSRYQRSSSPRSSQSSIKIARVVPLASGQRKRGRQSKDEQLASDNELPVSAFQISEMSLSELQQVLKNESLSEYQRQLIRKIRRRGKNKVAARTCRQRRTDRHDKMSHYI

Protein RecA = molecular target: T2, Protein RecA (Mycobacterium tuberculosis, UniProt P9WHJ3); assay: Fluorescence Cell-Free Homogeneous Dose Retest to Identify Inhibitors of RecA-Intein Splicing Activity. [Related pubchem assays (depositor defined):AID2097, AID2223, AID489010, AID492950]
T2 sequence (P9WHJ3 whole entry): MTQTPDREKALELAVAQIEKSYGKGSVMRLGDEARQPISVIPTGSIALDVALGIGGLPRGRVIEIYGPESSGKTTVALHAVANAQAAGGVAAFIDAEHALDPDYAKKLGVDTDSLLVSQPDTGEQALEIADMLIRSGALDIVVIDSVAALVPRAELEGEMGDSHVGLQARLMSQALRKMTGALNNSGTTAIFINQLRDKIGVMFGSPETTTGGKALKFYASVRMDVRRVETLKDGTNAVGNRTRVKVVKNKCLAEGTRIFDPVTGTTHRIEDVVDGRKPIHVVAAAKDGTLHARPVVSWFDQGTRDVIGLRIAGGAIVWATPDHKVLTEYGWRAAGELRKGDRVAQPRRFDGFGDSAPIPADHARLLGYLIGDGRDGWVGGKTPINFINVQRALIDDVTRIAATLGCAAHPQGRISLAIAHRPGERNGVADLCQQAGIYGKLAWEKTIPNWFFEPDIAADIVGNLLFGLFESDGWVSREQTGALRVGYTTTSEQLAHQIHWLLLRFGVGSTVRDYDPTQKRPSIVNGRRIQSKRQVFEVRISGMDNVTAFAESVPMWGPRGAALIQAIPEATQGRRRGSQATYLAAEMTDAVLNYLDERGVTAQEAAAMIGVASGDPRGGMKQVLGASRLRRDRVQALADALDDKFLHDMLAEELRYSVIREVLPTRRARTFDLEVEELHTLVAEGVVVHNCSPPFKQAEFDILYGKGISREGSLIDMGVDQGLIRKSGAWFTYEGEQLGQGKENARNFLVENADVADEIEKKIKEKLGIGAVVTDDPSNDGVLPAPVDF

[1] = molecular target: T3, Replicative DNA helicase DnaB (Mycobacterium tuberculosis, UniProt P9WMR3); assay: DnaB intein splicing inhibitors, dose response, biochemical, cell-free fluorescence (AID 449749)
T3 sequence (P9WMR3 whole entry): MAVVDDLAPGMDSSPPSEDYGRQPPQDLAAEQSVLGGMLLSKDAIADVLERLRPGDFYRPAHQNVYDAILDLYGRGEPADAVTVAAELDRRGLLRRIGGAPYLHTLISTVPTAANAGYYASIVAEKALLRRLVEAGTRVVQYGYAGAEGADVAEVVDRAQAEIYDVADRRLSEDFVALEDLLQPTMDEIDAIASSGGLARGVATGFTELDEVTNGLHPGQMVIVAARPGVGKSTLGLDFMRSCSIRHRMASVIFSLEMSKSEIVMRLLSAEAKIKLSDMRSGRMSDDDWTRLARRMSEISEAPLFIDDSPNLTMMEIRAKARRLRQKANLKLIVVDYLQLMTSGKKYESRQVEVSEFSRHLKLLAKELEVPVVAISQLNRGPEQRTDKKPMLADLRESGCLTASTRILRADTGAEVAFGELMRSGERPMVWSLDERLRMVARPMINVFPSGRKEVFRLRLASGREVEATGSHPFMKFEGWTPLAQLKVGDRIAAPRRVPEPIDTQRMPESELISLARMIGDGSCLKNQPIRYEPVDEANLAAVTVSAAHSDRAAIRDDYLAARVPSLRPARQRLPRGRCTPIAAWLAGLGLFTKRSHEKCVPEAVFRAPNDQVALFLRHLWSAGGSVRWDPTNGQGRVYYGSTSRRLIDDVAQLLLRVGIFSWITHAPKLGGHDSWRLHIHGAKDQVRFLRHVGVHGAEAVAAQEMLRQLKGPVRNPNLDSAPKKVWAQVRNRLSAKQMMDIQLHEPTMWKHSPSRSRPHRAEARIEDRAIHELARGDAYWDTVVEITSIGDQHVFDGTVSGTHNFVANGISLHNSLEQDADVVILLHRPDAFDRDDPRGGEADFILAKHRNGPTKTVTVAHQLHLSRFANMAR

[2] = viability of PTEN-deleted HCT116 cells – cell-based, HCT116 PTEN knockout, dose response (AID 1047);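 note: HCT116 colon tumor cells with PTEN knocked out; cells exposed to compound for 60 hours before readout; potency for loss of cell viability measured by luminescence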
[3] = viability of HCT116 lacking mutant beta-catenin – cell-based, human colon tumor, dose response (AID 1045);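 note: HCT116 colon tumor cells with beta catenin knocked out; cells exposed to compound for 60 hours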
Caspase-3 = molecular target: T4, Caspase-3 (Homo sapiens, UniProt P42574);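 note: Dose-response selectivity test against caspase-3 for candidate inhibitors of sentrin-specific proteases (SENPs)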
T4 sequence (P42574 whole entry): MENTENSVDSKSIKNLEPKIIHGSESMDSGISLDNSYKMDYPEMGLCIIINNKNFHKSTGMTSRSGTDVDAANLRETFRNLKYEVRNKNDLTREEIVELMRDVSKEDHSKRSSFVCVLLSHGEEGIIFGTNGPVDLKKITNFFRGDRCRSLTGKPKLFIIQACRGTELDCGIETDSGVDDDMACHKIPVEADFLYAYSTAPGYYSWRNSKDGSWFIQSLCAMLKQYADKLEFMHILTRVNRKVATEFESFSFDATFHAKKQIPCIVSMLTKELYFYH

[4] = molecular target: T5, Sentrin-specific protease 6 (Homo sapiens, UniProt Q9GZR1);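 note: Luminescence-based dose-response confirmatory assay of SENP6 inhibition, following up an ultra-high-throughput screen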
T5 sequence (Q9GZR1 whole entry): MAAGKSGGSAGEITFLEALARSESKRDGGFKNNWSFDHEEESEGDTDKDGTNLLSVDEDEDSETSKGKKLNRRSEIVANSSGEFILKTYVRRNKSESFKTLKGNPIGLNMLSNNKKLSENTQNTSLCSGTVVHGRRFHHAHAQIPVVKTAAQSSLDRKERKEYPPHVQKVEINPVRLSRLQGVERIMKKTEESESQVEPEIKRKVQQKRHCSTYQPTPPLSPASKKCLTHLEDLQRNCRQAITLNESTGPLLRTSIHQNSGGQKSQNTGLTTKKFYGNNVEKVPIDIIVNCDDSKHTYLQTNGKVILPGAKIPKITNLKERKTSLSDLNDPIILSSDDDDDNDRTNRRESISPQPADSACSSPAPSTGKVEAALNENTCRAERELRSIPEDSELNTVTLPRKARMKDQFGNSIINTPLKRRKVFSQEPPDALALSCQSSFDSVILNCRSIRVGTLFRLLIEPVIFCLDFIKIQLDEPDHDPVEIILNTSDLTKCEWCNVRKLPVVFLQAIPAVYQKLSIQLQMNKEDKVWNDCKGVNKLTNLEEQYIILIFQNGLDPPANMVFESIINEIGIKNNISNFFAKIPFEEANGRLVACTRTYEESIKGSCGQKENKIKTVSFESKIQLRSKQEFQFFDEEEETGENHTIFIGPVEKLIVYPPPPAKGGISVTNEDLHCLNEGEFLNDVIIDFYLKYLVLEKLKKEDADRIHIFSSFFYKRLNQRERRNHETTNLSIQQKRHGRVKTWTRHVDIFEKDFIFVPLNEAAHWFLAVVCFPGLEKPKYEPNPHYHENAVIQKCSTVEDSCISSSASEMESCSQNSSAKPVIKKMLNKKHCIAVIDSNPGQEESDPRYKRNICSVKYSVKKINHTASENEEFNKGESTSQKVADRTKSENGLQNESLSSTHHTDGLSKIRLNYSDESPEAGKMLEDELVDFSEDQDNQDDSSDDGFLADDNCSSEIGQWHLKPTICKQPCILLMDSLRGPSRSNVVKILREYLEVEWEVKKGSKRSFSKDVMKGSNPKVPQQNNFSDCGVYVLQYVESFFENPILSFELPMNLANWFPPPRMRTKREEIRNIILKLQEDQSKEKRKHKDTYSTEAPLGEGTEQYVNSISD

[5] = molecular target: T6, Sentrin-specific protease 8 (Homo sapiens, UniProt Q96LD8);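 note: luminescence read-out of SENP8 inhibition, dose-response confirmation following an ultra-high-throughput screen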
T6 sequence (Q96LD8 whole entry): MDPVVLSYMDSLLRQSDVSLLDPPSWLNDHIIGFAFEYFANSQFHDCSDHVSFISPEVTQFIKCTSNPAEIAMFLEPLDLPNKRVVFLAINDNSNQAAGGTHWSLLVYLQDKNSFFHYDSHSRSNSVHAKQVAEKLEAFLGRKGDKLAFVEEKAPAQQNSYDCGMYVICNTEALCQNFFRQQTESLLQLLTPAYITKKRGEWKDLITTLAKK

[6] = molecular target: T7, Sentrin-specific protease 7 (Homo sapiens, UniProt Q9BQF6);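 note: Luminescence-based dose-response confirmation of ultra-high-throughput screening hits, measuring inhibition of SENP7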
T7 sequence (Q9BQF6 whole entry): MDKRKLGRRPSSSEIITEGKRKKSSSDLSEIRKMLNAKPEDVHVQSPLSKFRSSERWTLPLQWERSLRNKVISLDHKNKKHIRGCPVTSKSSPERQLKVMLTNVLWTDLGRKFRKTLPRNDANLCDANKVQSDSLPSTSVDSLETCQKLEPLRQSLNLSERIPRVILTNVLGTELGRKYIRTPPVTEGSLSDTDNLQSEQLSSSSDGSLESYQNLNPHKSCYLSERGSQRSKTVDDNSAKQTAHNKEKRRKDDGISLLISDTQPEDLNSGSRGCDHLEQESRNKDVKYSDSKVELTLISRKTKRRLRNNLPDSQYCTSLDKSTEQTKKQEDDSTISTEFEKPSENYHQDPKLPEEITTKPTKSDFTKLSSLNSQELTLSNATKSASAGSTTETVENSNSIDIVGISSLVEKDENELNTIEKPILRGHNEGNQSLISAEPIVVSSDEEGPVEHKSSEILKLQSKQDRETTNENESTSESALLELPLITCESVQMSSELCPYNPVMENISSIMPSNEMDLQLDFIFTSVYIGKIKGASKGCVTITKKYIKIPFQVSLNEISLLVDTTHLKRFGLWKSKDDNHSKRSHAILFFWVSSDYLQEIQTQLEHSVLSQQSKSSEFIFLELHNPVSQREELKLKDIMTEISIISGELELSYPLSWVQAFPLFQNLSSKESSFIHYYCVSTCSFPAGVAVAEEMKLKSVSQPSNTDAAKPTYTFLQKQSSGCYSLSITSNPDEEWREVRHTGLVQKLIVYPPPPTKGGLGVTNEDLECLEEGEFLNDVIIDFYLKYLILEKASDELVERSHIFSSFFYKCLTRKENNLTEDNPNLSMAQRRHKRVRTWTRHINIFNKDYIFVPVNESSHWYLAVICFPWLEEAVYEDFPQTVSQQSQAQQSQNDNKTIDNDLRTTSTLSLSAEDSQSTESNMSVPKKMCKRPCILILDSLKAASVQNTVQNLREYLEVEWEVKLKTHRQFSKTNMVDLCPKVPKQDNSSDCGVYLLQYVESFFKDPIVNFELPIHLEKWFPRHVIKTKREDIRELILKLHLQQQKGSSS

Structure (SMILES): Clc1ccc(-c2nc(-c3ccncc3)no2)c(Cl)c1
- IC50 (Protein skinhead-1): 6.36 µM (active)

Structure (SMILES): COc1ccc(-c2cc(C(=O)n3cnc4ccccc43)c3ccccc3n2)cc1
- EC50 (Protein RecA): 3.72 µM (active)
- AC50 [1]: > 380 µM (inactive)
- IC50 (Protein skinhead-1): > 100 µM (inactive)

Structure (SMILES): O=C(CCN1CCN(S(=O)(=O)c2ccc(Cl)cc2)CC1)Nc1ccc(F)cc1
- IC50 (Protein skinhead-1): > 100 µM (inactive)

Structure (SMILES): CCOc1ccc(-c2nc(-c3cccnc3)no2)cc1
- IC50 (Protein skinhead-1): 22.6 µM (active)

Structure (SMILES): COc1cc2c(cc1OC)CN(c1nc(CN3CCOCC3)nc3sc4c(c13)CCCC4)CC2
- EC50 [2]: 4.64 µM (active)
- EC50 [3]: 6.69 µM (active)

Structure (SMILES): O=C(O)c1ccc2ccc3ccccc3c2c1
- IC50 (Protein skinhead-1): > 100 µM (inactive)

Structure (SMILES): CCN(CC)c1ccc(C2NC(=O)c3ccccc3N2)cc1 (stereo unspecified)
- IC50 (Protein skinhead-1): > 100 µM (inactive)

Structure (SMILES): CC(C)=CC(=O)Nc1nnc(-c2ccc(F)cc2)s1
- EC50 [2]: 18.2 µM (active)
- EC50 [3]: 13.8 µM (active)

Structure (SMILES): Clc1ccsc1-c1csc(-c2cccnc2)n1
- IC50 (Caspase-3): 19.4 µM (active)
- IC50 [4]: 11.3 µM (active)
- IC50 (Protein skinhead-1): > 100 µM (inactive)
- IC50 [5]: 22.6 µM (active)
- IC50 [6]: 6.3 µM (active)

Structure (SMILES): N=c1oc2ccccc2cc1-c1nc(-c2ccccc2)cs1
- IC50 (Protein skinhead-1): > 100 µM (inactive)

Structure (SMILES): CCc1c(C)nc2cc(-c3ccccc3)nn2c1O
- IC50 (Protein skinhead-1): > 100 µM (inactive)

Structure (SMILES): COC(=O)c1ccc(-c2csc(NC(=O)c3ccc(S(=O)(=O)N4CCc5ccccc5C4)cc3)n2)cc1
- EC50 [2]: 10.3 µM (active)
- EC50 [3]: 10.2 µM (active)

Source: ChEMBL document CHEMBL1201862, “PubChem BioAssay data set” (2004)
